Test results as given in PubChem BioAssay (NCI).
Several values for one entry are separate records, joined by “and”; a condition that tells them apart may be missing. Equal entries are not always repeated.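 Exposure lasted 48 hours, with cells grown in 96-well plates and compounds tested at five concentrations. GI50: concentration for 50% inhibition of growth. The concentration for full growth arrest is given as TGI.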

Columns and labels:
Assay in all cases: NCI anticancer screen, dose series, 48 h
786-0 renal = tested on: 786-0 renal
MALME-3M melanoma = tested on: MALME-3M melanoma
HCC-2998 colon = tested on: HCC-2998 colon
UACC-257 melanoma = tested on: UACC-257 melanoma
OVCAR-3 ovarian = tested on: OVCAR-3 ovarian
SF-539 CNS = tested on: SF-539 CNS
ACHN renal = tested on: ACHN renal

SMILES | GI50 (786-0 renal) | TGI (786-0 renal) | GI50 (MALME-3M melanoma) [µM] | TGI (MALME-3M melanoma) | GI50 (HCC-2998 colon) | TGI (HCC-2998 colon) [µM] | GI50 (UACC-257 melanoma) [µM] | TGI (UACC-257 melanoma) | GI50 (OVCAR-3 ovarian) | TGI (OVCAR-3 ovarian) | GI50 (SF-539 CNS) | TGI (SF-539 CNS) | GI50 (ACHN renal) [µM] | TGI (ACHN renal)
C=C1C(=O)O[C@H]2[C@H]1CC/C(COC(=O)NCc1cc(OC)cc(OC)c1)=C\CC[C@@]1(C)O[C@@H]21 | 1.7 µM | 3.45 µM | 1.86 | 3.83 µM | 1.94 µM | 3.51 | 1.54 | 3.7 µM | 1.01 µM | 2.31 µM | 1.54 µM | 3.02 µM | 1.29 | 2.8 µM
CCOC(=O)N1C=CC(=C2C(=C3C=CN(C(=O)OCC)C=C3)C(=C3C=CN(C(=O)OCC)C=C3)C2=C2C=CN(C(=O)OCC)C=C2)C=C1 | – | > 100 µM | – | 64 µM | – | – | – | > 100 µM | – | 81.1 µM | – | > 100 µM | – | 38.1 µM
Cc1cc(N(CCOS(C)(=O)=O)CCOS(C)(=O)=O)ccc1C=Nc1ccc(-c2csc(-c3ccc(Br)cc3)n2)cc1 | – | 20.7 µM | – | 67.2 µM | – | 31.8 | – | 56.8 µM | – | 44.3 µM | – | 9.64 µM | – | 13.8 µM
O=S(=O)(CCCCl)SCCCCl | – | 33.2 µM | – | > 83.8 µM | – | > 100 | – | > 100 µM | – | > 66.6 µM | – | 53.4 µM | – | > 100 µM
CCCCCCNCCCNc1c2ccccc2nc2cccc([N+](=O)[O-])c12 | 0.0239 µM | 0.0416 µM and 0.193 µM | 0.0168 | 0.0628 µM and 0.0572 µM | – | 0.021 | 0.059 | 0.252 µM and 0.261 µM | 0.0395 µM | 0.0477 µM and 0.206 µM | 0.0507 µM | 0.307 µM and 0.225 µM | 0.0151 | 0.0446 µM and 0.0858 µM
COc1ccc(C2c3c(-c4ccccc4)nn(-c4ccccc4)c3Oc3ncn4nc(CC#N)nc4c32)cc1OC (stereo unspecified) | 8.4 µM and 2.09 µM | 20.7 µM and 5.51 µM | – | – | > 100 µM and 22.6 µM | > 100 | – | > 100 µM and 40.4 µM | 75.4 µM and 10.3 µM | > 100 µM | 19.2 µM and 2.49 µM | 36.9 µM and > 27.6 µM | – | > 100 µM and 16.1 µM
Cc1nn(C)c2cc(N(C)c3ccnc(Nc4cccc(S(N)(=O)=O)c4)n3)ccc12 | 9.36 µM | > 25 µM | 4.72 | 21.8 µM | 15.7 µM | > 25 | 6.54 | > 25 µM | 8.19 µM | > 25 µM | 8.01 µM | > 25 µM | 6.71 | > 25 µM
O=C(O)c1ccccc1Nc1ccc2nnc(-c3ccncc3)n2n1 | 4.64 µM | 19.7 µM | 7.97 | 26.3 µM | 23.5 µM | 52 | 10.6 | 33.6 µM | 9.7 µM | 24.8 µM | 14.6 µM | 55.8 µM | 4.24 | 17.4 µM
Nc1ccccc1C#Cc1ccccc1C#Cc1cnccn1 | 15.3 µM | 28.7 µM | – | – | – | – | 35.3 | 79.9 µM | 9.79 µM | 25.8 µM | 17.1 µM | 31.6 µM | 24.1 | 46.2 µM
COc1cc(N2CCC(N3CCN(C)CC3)CC2)ccc1Nc1ncc(Cl)c(Nc2ccccc2S(=O)(=O)C(C)C)n1 | 1.12 µM | 2.44 µM | 1.32 | 3.46 µM | 1.07 µM | 2.39 | 1.23 | 2.58 µM | 2.22 µM | 6.87 µM | 1.39 µM | 2.74 µM | 0.76 | 2.61 µM
CSC1(CC(=O)N2CCCCC2)C(=O)Nc2ccccc21 (stereo unspecified) | – | > 100 µM | – | > 100 µM | – | > 100 | – | > 100 µM | – | > 100 µM | – | > 100 µM | – | > 100 µM
CC#CC(=O)N1CC[C@@H](n2c(=O)n(-c3ccc(Oc4ccccc4)cc3)c3c(N)ncnc32)C1 | 21.5 µM | > 100 µM | 18 | > 100 µM | 42.5 µM | > 100 | 51.8 | > 100 µM | 25.7 µM | > 100 µM | 25 µM | > 100 µM | 21.4 | > 100 µM
COc1ccc(C2CC(=O)c3c(O)c(OC)c(OC)c(OC)c3O2)cc1O (stereo unspecified) | 1.64 µM | > 100 µM | 32.8 | > 100 µM | 0.999 µM | > 100 | – | – | 0.0627 µM | 0.749 µM | 0.0666 µM | > 100 µM | 0.572 | > 100 µM
O=C(NCCCCCCNC(=O)OCc1ccc2c(Cl)cc(Cl)c(O)c2n1)OCc1ccc2c(Cl)cc(Cl)c(O)c2n1 | 1.28 µM | 2.67 µM | 1.42 | 2.77 µM | 1.68 µM | 3.22 | 1.3 | 2.77 µM | 0.327 µM | 1.24 µM | 0.468 µM | 1.63 µM | 0.353 | 1.32 µM
Nc1nc(-c2ccc(Cl)cc2)cc(-c2ccccc2)c1-c1nc2ccccc2o1 | 4.52 µM | 19.8 µM | 10.3 | 33.4 µM | 8.39 µM | 34 | 15.3 | 35.3 µM | 7.29 µM | 27.3 µM | 16.1 µM | 32.2 µM | 8.8 | 23.3 µM
CC(C)c1ccc2nc3ccc(C(=O)NCCN4CCN(c5ccccc5)CC4)cn3c(=O)c2c1 | – | > 100 µM | – | – | – | > 100 | – | > 100 µM | – | > 100 µM | – | – | – | –
CC1=CC(=O)c2ccc(C)cc2C1=O | – | 44.3 µM | – | – | – | 34.7 | – | 26.6 µM | – | 29.1 µM | – | 30 µM | – | 21 µM
COc1ccc(C(c2cc3c(cc2O)OCO3)N2CCOCC2)cc1OC (stereo unspecified) | – | 23.1 µM | – | 25.7 µM | – | – | – | 34.1 µM | – | 20.5 µM | – | 28.3 µM | – | 23.5 µM
COc1cc(/C=C2\C[C@H]3[C@@H]4CC=C5C[C@@H](OC(C)=O)CC[C@]5(C)[C@H]4CC[C@]3(C)[C@H]2OC(C)=O)ccc1OCCN1CCCCC1 | 12.3 µM | 21.3 µM | – | – | 10.9 µM | 19.9 | 5.77 | 13.6 µM | 18.5 µM | > 50 µM | 9.56 µM | 20.6 µM | 9.28 | 16.8 µM
Cn1c(=O)c2[nH]c(CCCCc3nc4c([nH]3)c(=O)n(C)c(=S)n4C)nc2n(C)c1=S | – | > 100 µM | – | > 100 µM | – | – | – | > 100 µM | – | > 100 µM | – | > 100 µM | – | > 100 µM
Cc1c(-c2nnc(-c3cc(Cl)c(Cl)cc3Cl)o2)nnn1-c1ccnc2c(C(F)(F)F)cccc12 | 33.8 µM | > 100 µM | 19.2 | 51.1 µM | 29.1 µM | 91.9 | – | – | 27.5 µM | 82.7 µM | 18.5 µM | 34.4 µM | 21.9 | 51.6 µM
